Data from patent US9743665B2, “Fungicidal 3-{phenyl[heterocyclylmethoxy)imino]methyl}-oxadiazolone derivatives” (BAYER CROPSCIENCE AKTIENGESELLSCHAFT, priority 2013, dated 2017).
Like-named read-outs stand apart in the source and are kept apart here. Marks after values point to notes of the source that are not given here.

Tests used:
[1] = for chromatographic logP: pH 2.7; for LogP: Table 1, formula (I), method [a]: HPLC/LC-MS at pH 2.7, 0.1% formic acid in water / acetonitrile gradient
Protocol: (§1) Measurement of IogP values was performed according EEC directive 79/831 Annex V.A8 by HPLC (High Performance Liquid Chromatography) on reversed phase columns with the following methods:
(§2) Measurement of LC-MS was done at pH 2.7 with 0.1% formic acid in water and with acetonitrile (contains 0.1% formic acid) as eluent with a linear gradient from 10% acetonitrile to 95% acetonitrile.
(§3) Calibration was done with not branched alkan2-ones (with 3 to 16 carbon atoms) with known logP-values (measurement of logP values using retention times with linear interpolation between successive alkanones). lambda-maX-values were determined using UV-spectra from 200 nm to 400 nm and the peak values of the chromatographic signals.

[2] = pH 2.7
Protocol: as §1, §2, §3

Phytophthora infestans = format: in vivo; details: tomato plants, preventive spray, 500 ppm of active ingredient, evaluated 5 days after inoculation
Septoria tritici = assay: Example G: in vivo preventive test on Septoria tritici (leaf spot on wheat); details: wheat plants, preventive spray, 500 ppm of active ingredient, evaluated 24 days after inoculation
Protocol: Example G: In Vivo Preventive Test on Septoria tritici (Leaf Spot on Wheat)
The tested active ingredients are prepared by homogenization in a mixture of acetone/Dimethyl sulfoxide/Tween®, and then diluted with water to obtain the desired active material concentration.
The young plants of wheat are treated by spraying the active ingredient prepared as described above. Control plants are treated only with an aqueous solution of acetone/Dimethyl sulfoxide/Tween®.
After 24 hours, the plants are contaminated by spraying the leaves with an aqueous suspension of Septoria tritici spores. The contaminated wheat plants are incubated for 72 hours at 18° C. and at 100% relative humidity and then for 21 days at 20° C. and at 90% relative humidity.
The test is evaluated 24 days after the inoculation. 0% means an efficacy which corresponds to that of the control plants while an efficacy of 100% means that no disease is observed.

Plasmopara viticola = assay: Example J: Plasmopara test (grapevines)/preventive; format: in vivo; details: grapevine plants, preventive spray, 10 ppm of active ingredient, evaluated 6 days after inoculation
Protocol: Example J: Plasmopara Test (Grapevines)/Preventive
To produce a suitable preparation of active compound, 1 part by weight of active compound is mixed with the stated amounts of solvent and emulsifier, and the concentrate is diluted with water to the desired concentration.
To test for preventive activity, young plants are sprayed with the preparation of active compound at the stated rate of application. After the spray coating has dried on, the plants are inoculated with an aqueous spore suspension of Plasmopara viticola and then remain for 1 day in an incubation cabinet at approximately 20° C. and a relative atmospheric humidity of 100%. The plant is subsequently placed for 4 days in a greenhouse at approximately 21° C. and a relative atmospheric humidity of approximately 90%. The plants are then misted and placed for 1 day in an incubation cabinet.
The test is evaluated 6 days after the inoculation. 0% means an efficacy which corresponds to that of the untreated control, while an efficacy of 100% means that no disease is observed.

SMILES | LogP [2] | % efficacy (Phytophthora infestans) | other results
N#C/C(=N\OCn1ccc([N+](=O)[O-])n1)c1ccccc1 [Example IV-1, (2Z)-{[(3-nitro-1H-pyrazol-1-yl)methoxy]imino}(phenyl)acetonitrile] | – | – | chromatographic logP [1]: 2.9
CCCC#Cc1csc(CON=C(C#N)c2ccccc2)n1 [Example IV-6] | 4.41^[a] | – | –
Cn1c(/C(=N\OCc2nc(/C=C/C3CC3)cs2)c2ccccc2)noc1=O [Example 34] | 3.90^[a] | 100% | % efficacy (Septoria tritici): 86%
N#CC(=NOCc1nc(C#CC2CCCCC2)cs1)c1ccccc1 [Example IV-9] | 5.42^[a] | – | –
Cn1c(/C(=N\OCc2nc(NC(=O)Cc3ccccc3)cs2)c2ccccc2)noc1=O [Example 19] | – | 98% | LogP [1]: 3.21^[a]
Cn1c(/C(=N\OCc2nc(/C=C/Cc3ccccc3)cs2)c2ccccc2)noc1=O [Example 41] | 4.39^[a] | – | –
CCCCCC#Cc1csc(CO/N=C(/c2ccccc2)c2noc(=O)n2C)n1 [Example 37] | 4.72^[a] | 100% | –
NC(=NO)C(=NOCc1nc(Br)cs1)c1ccccc1 [Example V-2] | 1.86^[a] | – | –
Cn1oc(=O)nc1/C(=N\OCn1ccc(N)n1)c1ccccc1 [Example 8, 3-[(Z)-{[(3-amino-1H-pyrazol-1-yl)methoxy]imino}(phenyl)methyl]-2-methyl-1,2,4-oxadiazol-5(2H)-one] | – | – | chromatographic logP [1]: 1.29
Cn1oc(=O)nc1/C(=N\OCn1ccc([N+](=O)[O-])n1)c1ccccc1 [Example 2, 2-methyl-3-[(Z)-{[(3-nitro-1H-pyrazol-1-yl)methoxy]imino}(phenyl)methyl]-1,2,4-oxadiazol-5(2H)-one] | – | – | chromatographic logP [1]: 2.1
Cn1c(/C(=N\OCc2nc(/C=C/C3CCCCC3)cs2)c2ccccc2)noc1=O [Example 29] | 5.39^[a] | 83% | % efficacy (Septoria tritici): 79%
CCCCC#Cc1csc(CON=C(C(N)=NO)c2ccccc2)n1 [Example V-4] | 2.98^[a] | – | –
Cn1c(C(=NOCc2nc(Br)cs2)c2ccccc2)noc1=O [Example 3, 3-[{[(4-bromo-1,3-thiazol-2-yl)methoxy]imino}(phenyl)methyl]-4-methyl-1,2,4-oxadiazol-5(4H)-one] | – | – | chromatographic logP [1]: 3.25
CCCC#Cc1csc(CO/N=C(/c2ccccc2)c2noc(=O)n2C)n1 [Example 22] | 3.87^[a] | 100% | Eff. % (Plasmopara viticola): 85%
C=CCOC(=O)Nc1csc(CO/N=C(/c2ccccc2)c2noc(=O)n2C)n1 [Example 42] | 3.02^[a] | – | –
CC(OCC(=O)Nc1csc(CO/N=C(/c2ccccc2)c2noc(=O)n2C)n1)c1ccccc1 (stereo not shown) [Example 38] | 4.32^[a] | 100% | Eff. % (Plasmopara viticola): 96%
Cn1c(/C(=N\OCc2nc(C#CCCc3ccccc3)cs2)c2ccccc2)noc1=O [Example 12] | 4.30^[a] | 100% | –
Cn1c(/C(=N\OCc2nc(NC(=O)C(C)(C)C)cs2)c2ccccc2)noc1=O [Example 11] | 3.23^[a] | 100% | –
CCCCC/C=C/c1csc(CO/N=C(/c2ccccc2)c2noc(=O)n2C)n1 [Example 30] | 5.23^[a] | 97% | –
Cn1c(/C(=N\OCc2nc(NC(=O)C3CCc4ccccc4O3)cs2)c2ccccc2)noc1=O (stereo not shown) [Example 27] | 3.77^[a] | 92% | Eff. % (Plasmopara viticola): 99%
N#CC(=NOCc1nc(Br)cs1)c1ccccc1 [Example IV-3, {[(4-bromo-1,3-thiazol-2-yl)methoxy]imino}(phenyl)acetonitrile] | – | – | chromatographic logP [1]: 3.61
COC(=O)c1csc(CON=C(C#N)c2ccccc2)n1 [Example IV-2] | 2.80^[a] | – | –
Cn1oc(=O)nc1/C(=N\OCc1nc(C#CC2CC2)cs1)c1ccccc1 [Example 4, 3-[(Z)-({[4-(cyclopropylethynyl)-1,3-thiazol-2-yl]methoxy}imino)(phenyl)methyl]-2-methyl-1,2,4-oxadiazol-5(2H)-one] | – | 100% | chromatographic logP [1]: 3.04
N#CC(=NOCc1nc(C#CC2CC2)cs1)c1ccccc1 [Example IV-8] | 4.04^[a] | – | –
CN(O)C(=N)/C(=N\OCn1ccc([N+](=O)[O-])n1)c1ccccc1 [Example VI-1, (2Z)—N-hydroxy-N-methyl-2-{[(3-nitro-1H-pyrazol-1-yl)methoxy]imino}-2-phenylethanimidamide] | – | – | chromatographic logP [1]: 1.15
N#CC(=NOCn1ccc(N)n1)c1ccccc1 [Example IV-4] | 1.86^[a] | – | –

SMILES | LogP [2] | % efficacy (Phytophthora infestans) | other results
CCCCC#Cc1csc(CON=C(C#N)c2ccccc2)n1 [Example IV-7] | 4.83^[a] | – | –
NC(=NO)C(=NOCn1ccc(N)n1)c1ccccc1 [Example V-1] | 0.65^[a] | – | –
Cn1c(/C(=N\OCc2nc(C#CCc3ccccc3)cs2)c2ccccc2)noc1=O [Example 39] | 4.07^[a] | 88% | –
Cn1c(/C(=N\OCc2nc(C#CC3CCCCC3)cs2)c2ccccc2)noc1=O [Example 31] | 4.80^[a] | 94% | –
Cc1ccc(C(=O)Nc2csc(CO/N=C(/c3ccccc3)c3noc(=O)n3C)n2)cc1 [Example 17] | 3.34^[a] | 100% | Eff. % (Plasmopara viticola): 84%
Cn1c(/C(=N\OCc2nc(NC(=O)COc3ccccc3)cs2)c2ccccc2)noc1=O [Example 28] | 3.30^[a] | 73% | –
CN(O)C(=N)/C(=N\OCc1nc(Br)cs1)c1ccccc1 [Example VI-2, (2Z)-2-{[(4-bromo-1,3-thiazol-2yl)methoxy]imino}-N-hydroxy-N-methyl-2-phenylethanimidamide] | – | – | chromatographic logP [1]: 1.49
CCCC/C=C/c1csc(CO/N=C(/c2ccccc2)c2noc(=O)n2C)n1 [Example 24] | 4.77^[a] | 98% | –
Cn1oc(=O)nc1/C(=N\OCc1nc(C(=O)NC(C)(C)C)cs1)c1ccccc1 [Example 43] | 2.61^[a] | – | –
Cn1oc(=O)nc1/C(=N\OCc1nc(Br)cs1)c1ccccc1 [Example 14, 3-[(Z)-{[(4-bromo-1,3-thiazol-2-yl)methoxy]imino}(phenyl)methyl]-2-methyl-1,2,4-oxadiazol-5(2H)-one] | – | 74% | chromatographic logP [1]: 2.6
CCCC#Cc1csc(CO/N=C(/c2ccccc2)c2noc(=O)[nH]2)n1 [Example 26] | 3.47^[a] | – | –
Cn1c(/C(=N\OCc2nc(C(=O)NC(C)(C)C)cs2)c2ccccc2)noc1=O [Example 5] | 3.22^[a] | 100% | % efficacy (Septoria tritici): 86%
CCCC(C)C(=O)Nc1csc(CO/N=C(/c2ccccc2)c2noc(=O)n2C)n1 (stereo not shown) [Example 36] | 3.45^[a] | 99% | –
CC(C)C#Cc1csc(CO/N=C(/c2ccccc2)c2noc(=O)n2C)n1 [Example 23] | – | 99% | LogP [1]: 3.86^[a]
O=c1[nH]c(/C(=N\OCc2nc(C#CC3CCCCC3)cs2)c2ccccc2)no1 [Example 32] | 4.33^[a] | – | –
CCCCCC#Cc1csc(CON=C(C#N)c2ccccc2)n1 [Example IV-10] | 5.27^[a] | – | –
CCCCC#Cc1csc(CO/N=C(/c2ccccc2)c2noc(=O)n2C)n1 [Example 21] | 4.26^[a] | 100% | –
CCCCCC#Cc1csc(CON=C(C(N)=NO)c2ccccc2)n1 [Example V-6] | 3.37^[a] | – | –
N#CC(=NOCc1nc(C#CCCCc2ccccc2)cs1)c1ccccc1 [Example IV-5] | 5.19^[a] | – | –
Cn1c(/C(=N\OCc2nc(C(=O)NC3CCCCC3)cs2)c2ccccc2)noc1=O [Example 9] | 3.43^[a] | 79% | –
NC(=NO)C(=NOCc1nc(C#CC2CCCCC2)cs1)c1ccccc1 [Example V-5] | 3.42^[a] | – | –
CC(Oc1ccccc1)C(=O)Nc1csc(CO/N=C(/c2ccccc2)c2noc(=O)n2C)n1 (stereo not shown) [Example 40] | 3.55^[a] | 100% | Eff. % (Plasmopara viticola): 99%
C#CCCOC(=O)Nc1csc(CO/N=C(/c2ccccc2)c2noc(=O)n2C)n1 [Example 1] | 2.97^[a] | 98% | –
Cn1c(/C(=N\OCc2nc(NC(=O)COCc3ccccc3)cs2)c2ccccc2)noc1=O [Example 35] | 3.45^[a] | 93% | –
CCCC#Cc1csc(CON=C(C(N)=NO)c2ccccc2)n1 [Example V-3] | 2.59^[a] | – | –
CCCCC#Cc1csc(CO/N=C(/c2ccccc2)c2noc(=O)[nH]2)n1 [Example 25] | 3.39^[a] | – | –
